Experimental data: patent publication US7560477B2, “Compounds active in sphingosine 1-phosphate signaling” (University of Virginia Patent Foundation, priority 2002, dated 2009)

Experiments:
Assay type in all cases: biochemical
hS1P3 = molecular target: T1, hS1P3 (Homo sapiens, UniProt Q99500); assay: [γ-35S]GTP binding, HEK293T cell membranes with S1P3 receptor
T1 construct: expressed in transfected cells; host or cells: HEK293T cells, transient transfection
Experimental: (§1) Human or mouse S1P5 DNA was mixed with an equal amount of DNA encoding a rat Gi2R protein as well as DNAs encoding cow β1 and γ2 proteins and used to transfect monolayers of HEK293T cells using the calcium phosphate precipitate method. After 60 h, cells were harvested, and microsomes were prepared, aliquoted, and stored at −70° C. until use.
(§2) After incubating for 30 min at 30° C., bound radionuclide was separated from free by filtration through Whatman GF/C paper using a Brandel Cell Harvester (Gaithersburg, Md.).
(§3) Assay of cAMP accumulation was performed as described previously (See Im et al., J. Biol. Chem. 275, 14281-14286 (2000), the disclosure of which is incorporated herein). Assays were conducted on populations of 5×10^5 cells stimulated with 1 uM forskolin in the presence of the phosphodiesterase inhibitor […] (IBMX, 1 mM) for 15 min. cAMP was measured by automated radioimmunoassay. The GTPγS studies were performed using zebrafish S1P1 overexpressed rat RH-7777 and human hS1P1, hS1P2, hS1P3 and hS1P5 overexpressed human HEK293 cells.
(§4) An additional series of compounds was tested using the GTPCS binding assay described in Example 2 and in Im et al., J. Biol. Chem. 275, 14281-14286 (2000), the disclosure of which is incorporated herein).

hS1P1 = molecular target: T2, hS1P1 (Homo sapiens, UniProt P21453); assay: [γ-35S]GTP binding, HEK293T cell membranes with S1P1 receptor
T2 construct: expressed in transfected cells; host or cells: HEK293T cells, transient transfection
T2 sequence (P21453 whole entry): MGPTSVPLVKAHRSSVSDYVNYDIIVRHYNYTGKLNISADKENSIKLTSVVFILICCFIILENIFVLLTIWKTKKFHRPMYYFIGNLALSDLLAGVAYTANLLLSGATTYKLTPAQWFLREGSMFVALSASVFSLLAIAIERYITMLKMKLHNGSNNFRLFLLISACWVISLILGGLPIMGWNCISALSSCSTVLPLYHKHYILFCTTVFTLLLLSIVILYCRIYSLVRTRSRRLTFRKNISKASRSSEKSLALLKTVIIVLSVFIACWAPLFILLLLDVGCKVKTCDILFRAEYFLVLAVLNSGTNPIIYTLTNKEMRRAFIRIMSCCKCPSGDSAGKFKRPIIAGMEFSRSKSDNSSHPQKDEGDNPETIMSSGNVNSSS
Experimental: as §1, §2, §3, §4

[1] = tested on: Recombinant S1P Receptors; assay: [γ-35S]GTP binding at recombinant S1P receptors (statements covering all receptors tested); conditions: at each receptor
Experimental: The same results were obtained regardless of whether the recombinant receptor used exogenous G proteins (HEK293T cells) or endogenous G proteins (RH7777 cells). […] The Sf9 cell and HEK293T cell membranes gave similar results. Furthermore, the activities measured in the broken cell assay predicted the responses seen in whole cell assays.
as §2, §3

T1 sequence (Q99500 whole entry): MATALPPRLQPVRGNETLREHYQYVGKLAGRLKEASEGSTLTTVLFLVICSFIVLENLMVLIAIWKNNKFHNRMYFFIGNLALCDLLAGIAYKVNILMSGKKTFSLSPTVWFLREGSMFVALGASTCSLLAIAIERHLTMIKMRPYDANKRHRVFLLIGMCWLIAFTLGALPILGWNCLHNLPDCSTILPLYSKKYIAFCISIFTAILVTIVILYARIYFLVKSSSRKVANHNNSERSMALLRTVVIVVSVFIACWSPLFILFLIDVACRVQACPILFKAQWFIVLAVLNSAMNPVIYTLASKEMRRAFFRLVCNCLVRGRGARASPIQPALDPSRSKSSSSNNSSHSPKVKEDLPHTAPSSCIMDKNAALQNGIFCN

CCCCCCCCCc1cccc(NC(=O)[C@H](N)COP(=O)(O)O)c1 [VPC23079]
type of activity at the S1P3 receptor (inverse agonism / agonism) (hS1P3; result in words): agonism

CCCCCCCCCCCCCCNC(=O)[C@H](N)COP(=O)(O)O [VPC22135]
potency compared with S1P at human S1P3 receptor (hS1P3; result in words): approached the potency of S1P
potency compared with S1P at human S1P1 receptor (hS1P1; result in words): approached the potency of S1P

CCCCCCCCCCc1cccc(NC(=O)[C@H](N)COP(=O)(O)O)c1 [VPC23069]
type of activity at the S1P3 receptor (inverse agonism / agonism) (hS1P3; result in words): agonism

CCCCCCc1cccc(NC(=O)[C@H](N)COP(=O)(O)O)c1 [VPC23031]
type of activity at the S1P3 receptor (inverse agonism / agonism) (hS1P3; result in words): inverse agonists

CCCCCCCCc1ccccc1NC(=O)[C@H](N)COP(=O)(O)O [VPC23089]
type of activity at the S1P3 receptor (inverse agonism / agonism) (hS1P3; result in words): inverse agonists

CCCCCCCCCCCCC/C=C/[C@@H](O)[C@@H](N)COP(=O)(O)O [Compound S1P, Sphingosine-1-phosphate]
increase of GTPγS binding [1]: 2-5 fold

CCCCCCCCc1cccc(NC(=O)[C@H](N)COP(=O)(O)O)c1 [VPC23019]
type of activity at the S1P3 receptor (inverse agonism / agonism) (hS1P3; result in words): inverse agonists
antagonism at S1P1 (hS1P1; result in words, competition with S1P): antagonism

CCCCCCCCCCCCCCOC(=O)[C@@H](N)COP(=O)(O)O [VPC22053]
less potent than enantiomer VPC22135 at S1P3 receptor (hS1P3): more than 1 log order
less potent than enantiomer VPC22135 at S1P1 receptor (hS1P1): more than 1 log order
